In patent US10676430B2, “Non-alpha substituted peroxy acids and uses thereof” (Stepan Company, priority 2016, dated 2020):

Experiments:
[1] = test system: Staphylococcus aureus (Sa, ATCC 6538); test: Method A: AOAC Use Dilution test for Disinfectants (Method 955.15); assay type: cell-based; conditions: 1 minute
Experimental: (§1) In this Example, 3-HPPA was evaluated for biocidal efficacy against Sa, Pa, and Ec using three different test methods. PAA was also evaluated for biocidal efficacy for comparison. The test methods were performed using 400 ppm of hard water as diluent, in the presence of 5% organic matter.
(§2) Method A: AOAC Use Dilution test for Disinfectants (Official Methods of Analysis. Methods 955.15—Staphylococcus aureus. Method 964.02—Pseudomonas aeruginosa. Posted September 2013). Killing efficacy is a qualitative result, reported as number of tubes showing microbial growth and total number carriers tested.

[2] = test system: Pseudomonas aeruginosa (Pa, ATCC 15442); test: Method A: AOAC Use Dilution test for Disinfectants (Method 964.02); assay type: cell-based; conditions: 1 minute
Experimental: as §1, §2

[3] = test system: Spores of Clostridium difficile (ATCC 43598); test: Quantitative Disk Carrier Test Method (QCT-2), EPA MB-31-03, sporicidal efficacy; assay type: cell-based; conditions: water hardness 400 ppm
Experimental: Different formulations containing 3-HPPA at different concentrations were prepared and evaluated for sporicidal efficacy against Cd. The 3-HPPA formulations were also compared to the sporicidal efficacy of different formulations containing peracetic acid (PAA). The test procedure for evaluating sporicidal efficacy was in accordance with the EPA test method in place in 2015: Quantitative Disk Carrier Test Method (QCT-2) Modified for Testing Antimicrobial Products Against Spores of Clostridium difficile (ATCC 43598) on Inanimate, Hard, Non-porous Surfaces (MB-31-03). This method mandates the presence of a high level of organic soil.

[4] = test system: Pseudomonas aeruginosa (Pa, ATCC 15442); test: Method A+: modified quantitative AOAC Use Dilution test; assay type: cell-based; conditions: 750 ppm, 1 minute, 400 ppm hard water, 5% organic matter
Experimental: as §1
(§3) Method A^+: modified quantitative AOAC Use Dilution test for Disinfectants (Official Methods of Analysis. Methods 955.15—Staphylococcus aureus. Method 964.02—Pseudomonas aeruginosa. Posted September 2013). The number of surviving organisms on each carrier was quantitatively determined after the indicated contact time. No growth observed on the solid recovery medium means no survivors present on the carriers after exposure to the antimicrobial composition. A kill rate of 99.9999% is equivalent to a 6 log kill.

[5] = test system: Staphylococcus aureus (Sa, ATCC 6538); test: as above; assay type: cell-based; conditions: 750 ppm, 1 minute, 400 ppm hard water, 5% organic matter
Experimental: as §1, §3

[6] = Peracid stability by standard titration method; assay type: physicochemical
Description: […] The H2O2 used is commercially available from Arkema under the tradename Perxoal 50EG and includes a small amount of stabilizer. The reaction proceeded until equilibrium was reached, in accordance with the reaction scheme recited above. The starting carboxylic acids were acetic acid, 3-hydroxy propanoic acid, 3-chloro-propanoic acid, 2-hydroxy-acetic acid (glycolic acid), 2-hydroxy-propanoic acid (lactic acid) and 2-oxo-propanoic acid. The 3-hydroxy propanoic acid and 3-chloro-propanoic acid generated non alpha-substituted peracids that are examples of the present technology. The other starting carboxylic acids generated peracids that are not within Formula 1 or Formula 2 and are comparative peracid examples.
Each of the resulting peracids were evaluated for odor. In addition, the resulting peracids were evaluated for stability using a standard titration method known to those skilled in the art.

[7] = 750 ppm, 400 ppm hard water, 5% organic matter
[8] = reaction mixture 20.00% organic acid, 7.50% H2O2, 1.00% H2SO4, DI water

Structure (SMILES): CC(=O)OO [PAA, peracetic acid]
- Efficacy outcome, EPA UDT/MB-05-13 test method ([1]; 750 ppm active): efficacious
- Efficacy (Method A): tubes showing microbial growth / total carriers tested [1, 7]: 0/20
- Efficacy outcome, EPA UDT/MB-05-13 test method ([2]; 750 ppm active): efficacious
- Efficacy (Method A): tubes showing microbial growth / total carriers tested [2, 7]: 0/20
- Log10 reduction ([3]; peracid active 1844 ppm, contact time 2 minute): 4.76
- Log10 reduction ([3]; peracid active 2500 ppm, contact time 4 minute): 4.37
- Log10 reduction ([3]; peracid active 2500 ppm, contact time 4 minute, listed as PAA alone): <4.37
- Log10 reduction ([3]; peracid active 5000 ppm, contact time 4 minute): 6.39
- Efficacy (Method A+), kill rate [4]: >99.9999%
- Efficacy (Method A+), kill rate [5]: >99.9999%
- Peracid at day 13 ([6]; 0% H2SO4 (no acid catalyst), 17.00-20.00% organic acid, 7.8-8.5% H2O2): 1.44%
- Peracid loss/day ([6]; 1.00% H2SO4, between day 6 and day 13): 0.131%
- Peracid at day 6 [6, 8]: 2.290%
- Peracid at day 13 [6, 8]: 2.270%
